# Values quoted from earlier work in patent US20070259951A1, “Compounds, Compositions and Methods” (SMITHKLINE BEECHAM CORPORATION, priority 2003, published 2007).
# System: A549 cells
# Settings: data provided by National Cancer Institute
row,SMILES,GI50
1,O=c1[nH]cc(F)c(=O)[nH]1 [5-fluorouracil],1000 nM
2,COc1cccc2c1C(=O)c1c(O)c3c(c(O)c1C2=O)C[C@@](O)(C(=O)CO)C[C@@H]3O[C@H]1C[C@H](N)[C@H](O)[C@H](C)O1 [doxorubicin],63 nM
3,NC(=O)NO [hydroxyurea],500000 nM
4,CC(=O)O[C@H]1C(=O)[C@@]2(C)[C@H]([C@H](OC(=O)c3ccccc3)[C@]3(O)C[C@H](OC(=O)[C@H](O)[C@@H](NC(=O)c4ccccc4)c4ccccc4)C(C)=C1C3(C)C)[C@]1(OC(C)=O)CO[C@@H]1C[C@@H]2O [paclitaxel],4 nM
